Experimental data as given in article PMC11436758, “Computer-aided drug design to generate a unique antibiotic family” (Nature Communications, 2024).
Converted amounts (≈) assume the structure as drawn. “And” between values parts separate entries of the source, which are not always exact repeats. Equal values may be shown once. Read-outs that look alike come from different tables or passages of the source.

Legend:
[1] = test system: 102 ATCC strains and clinical isolates of Staphylococcus, Streptomyces, and Enterococcus; test: MIC panel summary over all strains; assay type: cell-based; settings: of the seven strains above 2 μg/mL
Protocol: (§1) We also sought to determine if DNM0547 was bacteriostatic or bactericidal. Time kill experiments were carried out using increasing doses of DNM0547 against two different strains of MRSA.
The medium employed for the assay was Mueller Hinton II Broth (MHB II; Becton-Dickinson, Sparks, MD, USA). Agar plates used for the organisms were trypticase soy agar plus 5% sheep blood (BD; Sparks, MD, USA). MIC assay plates were prepared using the CLSI broth microdilution procedure. Automated liquid handlers (Multidrop 384, Biomek 2000 and Biomek FX) were used to conduct serial dilutions and liquid transfers. A standardized inoculum of each organism was prepared per CLSI methods. Suspensions were prepared to equal a 0.5 McFarland standard, followed by a 1:20 dilution in test media. The inocula were dispensed into sterile reservoirs divided by length (Beckman Colter) and the Biomek 2000 was used to inoculate the plates. Daughter plates were placed on the Biomek 2000 work surface in reverse orientation so that inoculation took place from low to high drug concentration. The Biomek 2000 delivered 10 μL of the diluted suspension into each well. These inoculations yielded a final cell concentration in the daughter plates of ~5 × 10^5 colony-forming units/mL in each well. The wells of the daughter plates ultimately contained 185 μL of broth, 5 μL of drug solution, and 10 μL of bacterial inoculum. Plates were covered with a sterile lid on the top plate, placed in plastic bags, and incubated at 35 °C for ~18 h. The microplates were viewed from the bottom using a plate viewer and the MIC was read. The MIC was recorded as the lowest concentration of drug that inhibited visible growth of the organism.

HEK293 cells = test: cells; assay type: cell-based; settings: Homo sapiens, Hek293 cells, 24 hrs
Protocol: (§2) Stock solutions of the test agents were prepared in DMSO (40 mg/mL) and stored at −20 °C until use. AlamarBlue HS™ cell viability reagent was acquired from Invitrogen (Cat # A50100, Carlsbad, CA). COS7 and HEK293 cells (obtained from ATCC) were cultured and tested at 37 °C in a 5% CO2/100% humidity environment in DMEM media supplemented with 10% fetal bovine serum. Cells were trypsinized, centrifuged, resuspended in cell media, counted on a hemacytometer, and diluted to an appropriate cell density to give the desired number of cells per 300 μl media. Cells were then loaded into 48-well cell culture plates (3548; Corning, Inc.); 300 μl/well at 60,000 cells per well. The cell density was determined in preliminary tests to give linear AlamarBlue HS™ readings over a 3.5 h period for HEK293 cells and 2 h period for COS7 cells after 2 days of growth; 2 wells per plate were loaded with 300 μl/well of cell-free media to provide background readings. Plates were cultured overnight, after which test agent solutions were prepared in media at the highest test concentration (100 ug/mL) and at five serial dilutions, each containing 0.25% DMSO and 0.125% Kolliphor® EL (Cat# 27963, Sigma Aldrich). The compounds concentrations were then loaded in separate columns via 300 μl/well. […] Normalized values representing the amount of AlamarBlue converted to its […] form were calculated for each well using background-corrected absorbances as described by the Alamar-Blue HS protocol information packet available from Invitrogen Technical Support. The fraction of control viability for each agent concentration with each cell line was then determined by the ratio of normalized values for the treated wells to the control wells. […] Values were determined by linear interpolation of fraction of control growth against concentration for the test agent concentrations.

COS7 cells = test: cells; assay type: cell-based; settings: for IC50: Chlorocebus aethiops, COS-7, COS7 cells, 24 hrs
Protocol: as §2

in vitro = assay type: cell-based
Protocol: as §2

AcpS_R48A = target: T1, AcpS_R48A (Escherichia coli, UniProt P24224, R48A); test: Inhibition of purified AcpS site-directed mutant by drug (Suppl Fig 3 source data); assay type: biochemical; settings: for AcpS rate nM/min, Mean / AcpS rate: Suppl Fig 3, [AcpS_R48A] 5 nM; for AcpS rate: replicates
T1 construct: 6x-His (C); made in house
T1 sequence (P24224 whole entry R48A): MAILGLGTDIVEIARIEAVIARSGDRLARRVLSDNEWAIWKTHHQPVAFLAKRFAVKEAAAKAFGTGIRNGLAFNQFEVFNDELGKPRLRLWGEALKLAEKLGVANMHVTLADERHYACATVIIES

[2] = test system: MRSA MMX 2119 (NRS23, USA100) and MRSA MMX 4675 (ATCC BAA-1556, USA300); test: Time kill; assay type: cell-based, S. aureus; settings: for drop in surviving bacteria: two strains of MRSA
Protocol: as §1
Supplementary Figure 5. Time kill of DNM0547 versus S. aureus. The time kill of DNM0547
4675 (ATCC BAA-1556, USA300) were determined. Representative experiments are shown. […]

[3] = test system: Primary Skin Fibroblasts cells; test: Cell culture toxicity, Alamar Blue HS fluorescence; assay type: cell-based; settings: Suppl Fig 9, Primary Skin Fibroblasts cells
[4] = read-out: IC50 (cell viability)
[5] = read-out: Log IC50 (cell viability) (converted)

In the case of CC(C)c1cc(Cl)ccc1-c1cc(-c2nnn[nH]2)c(-c2ccc(Cl)cc2C(C)C)s1 [DNM0547], the “number of strains with MIC 4 μg/mL” value [1] is reported as “four”, the “number of strains with MIC 8 μg/mL” value [1] is reported as “two” and the “number of strains with MIC 32 μg/mL” value [1] is reported as “one”. For the same compound, the IC50 (HEK293 cells; [4]) was 41.5 µg/mL (≈ 90.8 µM), the IC50 (HEK293 cells; [5]) was 41.5 µg/mL (≈ 90.7 µM) and the IC50 (COS7 cells; [4]) was 21.2 µg/mL (≈ 46.3 µM). The IC50 (COS7 cells; [5]) was 21.2 µg/mL (≈ 46.3 µM), the “Fluorescence (FI)” value (COS7 cells; Suppl Fig 9, COS7 cells, Alamar Blue HS, Conc. 40000 ng/ml) was 261 FI and the CC50 at 24 h (in vitro; African green monkey) was 21 µg/mL (≈ 45.9 µM). The CC50 at 24 h (in vitro; human) was 41 µg/mL (≈ 89.6 µM), the “AcpS rate nM/min, Mean” value (AcpS_R48A; Drug Conc 1 uM) was 97.88 nM/min and the “AcpS rate” value (AcpS_R48A; Drug Conc 1 uM) was 102.89 nM/min and 96.62 nM/min and 94.12 nM/min. For the same compound, the “AcpS rate nM/min, Mean” value (AcpS_R48A; Drug Conc 2 uM) was 93.89 nM/min, the “AcpS rate” value (AcpS_R48A; Drug Conc 2 uM) was 97.97 nM/min and 91.69 nM/min and 92.02 nM/min and the “AcpS rate nM/min, Mean” value (AcpS_R48A; Drug Conc 4 uM) was 94.54 nM/min. The “AcpS rate” value (AcpS_R48A; Drug Conc 4 uM) was 95.47 nM/min and 93.88 nM/min and 94.27 nM/min, the “AcpS rate nM/min, Mean” value (AcpS_R48A; Drug Conc 8 uM) was 92.47 nM/min and the “AcpS rate” value (AcpS_R48A; Drug Conc 8 uM) was 92.76 nM/min and 91.81 nM/min and 92.85 nM/min. For the same compound, the “AcpS rate nM/min, Mean” value (AcpS_R48A; Drug Conc 16 uM) was 48.14 nM/min, the “AcpS rate” value (AcpS_R48A; Drug Conc 16 uM) was 58.48 nM/min and 54.48 nM/min and 31.45 nM/min and the “AcpS rate nM/min, Mean” value (AcpS_R48A; Drug Conc 32 uM) was 20.22 nM/min. The “AcpS rate” value (AcpS_R48A; Drug Conc 32 uM) was 22.18 nM/min and 16.02 nM/min and 22.44 nM/min, the “AcpS rate nM/min, Mean” value (AcpS_R48A; Drug Conc 64 uM) was 10.15 nM/min and the “AcpS rate” value (AcpS_R48A; Drug Conc 64 uM) was 9.77 nM/min and 11.77 nM/min and 8.90 nM/min. The “AcpS rate nM/min, Mean” value (AcpS_R48A; Drug Conc 128 uM) was 4.77 nM/min, the “AcpS rate” value (AcpS_R48A; Drug Conc 128 uM) was 4.67 nM/min (2×) and 4.95 nM/min and the remaining activity at 1 µM (AcpS_R48A; read-out: % of untreated, Suppl Fig 3, [AcpS_R48A] 5 nM, Drug Conc 1 uM, replicates) was 106%. For the same compound, the remaining activity at 2 µM (AcpS_R48A; read-out: % of untreated, Suppl Fig 3, [AcpS_R48A] 5 nM, Drug Conc 2 uM, replicates) was 101%, the remaining activity at 4 µM (AcpS_R48A; read-out: % of untreated, Suppl Fig 3, [AcpS_R48A] 5 nM, Drug Conc 4 uM, replicates) was 98.7% and the remaining activity at 8 µM (AcpS_R48A; read-out: % of untreated, Suppl Fig 3, [AcpS_R48A] 5 nM, Drug Conc 8 uM, replicates) was 95.9%. It also gave a remaining activity at 32 µM (AcpS_R48A; read-out: % of untreated, Suppl Fig 3, [AcpS_R48A] 5 nM, Drug Conc 32 uM, replicates) of 22.9%, a remaining activity at 64 µM (AcpS_R48A; read-out: % of untreated, Suppl Fig 3, [AcpS_R48A] 5 nM, Drug Conc 64 uM, replicates) of 10.1% and a remaining activity at 128 µM (AcpS_R48A; read-out: % of untreated, Suppl Fig 3, [AcpS_R48A] 5 nM, Drug Conc 128 uM, replicates) of 4.83%. The “drop in surviving bacteria” value ([2]; 2x MIC, at 2 h and 6 h) was “three”, the “drop in surviving bacteria” value ([2]; 4x and 8x MIC, at 2 h) was “three” and the CFU/mL ([2]; Suppl Fig 5a, S. aureus MMX 2119, 2X, 0 hr) was 7.70E+05 CFU/mL. The CFU/mL ([2]; Suppl Fig 5a, S. aureus MMX 2119, 2X, 2 hr) was 6.00E+02 CFU/mL, the CFU/mL ([2]; Suppl Fig 5a, S. aureus MMX 2119, 2X, 6 hr) was 3.00E+02 CFU/mL and the CFU/mL ([2]; Suppl Fig 5a, S. aureus MMX 2119, 2X, 24 hr) was “LOD”. For the same compound, the CFU/mL ([2]; Suppl Fig 5a, S. aureus MMX 2119, 4X, 0 hr) was 7.70E+05 CFU/mL, the CFU/mL ([2]; Suppl Fig 5a, S. aureus MMX 2119, 4X, 2 hr) was 4.50E+02 CFU/mL and the CFU/mL ([2]; Suppl Fig 5a, S. aureus MMX 2119, 4X, 6 hr) was 1.50E+02 CFU/mL. For the same compound, the CFU/mL ([2]; Suppl Fig 5a, S. aureus MMX 2119, 4X, 24 hr) was “LOD”, the CFU/mL ([2]; Suppl Fig 5a, S. aureus MMX 2119, 8X, 0 hr) was 7.70E+05 CFU/mL and the CFU/mL ([2]; Suppl Fig 5a, S. aureus MMX 2119, 8X, 2 hr) was “LOD”. The CFU/mL ([2]; Suppl Fig 5a, S. aureus MMX 2119, 8X, 6 hr) was “LOD”, the CFU/mL ([2]; Suppl Fig 5a, S. aureus MMX 2119, 8X, 24 hr) was “LOD” and the CFU/mL ([2]; Suppl Fig 5b, S. aureus MMX 4657, 2X, 0 hr) was 1.01E+06 CFU/mL. For the same compound, the CFU/mL ([2]; Suppl Fig 5b, S. aureus MMX 4657, 2X, 2 hr) was 1.05E+03 CFU/mL, the CFU/mL ([2]; Suppl Fig 5b, S. aureus MMX 4657, 2X, 6 hr) was “LOD” and the CFU/mL ([2]; Suppl Fig 5b, S. aureus MMX 4657, 2X, 24 hr) was “LOD”. The CFU/mL ([2]; Suppl Fig 5b, S. aureus MMX 4657, 4X, 0 hr) was 1.01E+06 CFU/mL, the CFU/mL ([2]; Suppl Fig 5b, S. aureus MMX 4657, 4X, 2 hr) was 2.50E+02 CFU/mL and the CFU/mL ([2]; Suppl Fig 5b, S. aureus MMX 4657, 4X, 6 hr) was “LOD”. For the same compound, the CFU/mL ([2]; Suppl Fig 5b, S. aureus MMX 4657, 4X, 24 hr) was “LOD”, the CFU/mL ([2]; Suppl Fig 5b, S. aureus MMX 4657, 8X, 0 hr) was 1.01E+06 CFU/mL and the CFU/mL ([2]; Suppl Fig 5b, S. aureus MMX 4657, 8X, 2 hr) was “LOD”. The CFU/mL ([2]; Suppl Fig 5b, S. aureus MMX 4657, 8X, 6 hr) was “LOD”, the CFU/mL ([2]; Suppl Fig 5b, S. aureus MMX 4657, 8X, 24 hr) was “LOD” and the “Fluorescence (FI)” value ([3]; Conc. 2 ng/ml) was 921 FI and 814 FI and 995 FI. The “Fluorescence (FI)” value ([3]; Conc. 100 ng/ml) was 911 FI and 909 FI and 816 FI and 747 FI, the “Fluorescence (FI)” value ([3]; Conc. 2500 ng/ml) was 895 FI and 904 FI and 819 FI and 790 FI and the “Fluorescence (FI)” value ([3]; Conc. 5000 ng/ml) was 907 FI and 820 FI and 922 FI and 909 FI. The “Fluorescence (FI)” value ([3]; Conc. 20000 ng/ml) was 577 FI and 548 FI and 542 FI and 552 FI, the “Fluorescence (FI)” value ([3]; Conc. 40000 ng/ml) was 62 FI and 57 FI and 54 FI and the “Fluorescence (FI)” value ([3]; Conc. 100000 ng/ml) was 7 FI and 5 FI.
